Laboratory results taken from patent US20230141783A1, “DIFFERENT FORMS OF 6-CHLORO-2-ETHYL-N-(4-(4-(4-(TRIFLUOROMETHOXY)PHENYL)PIPERIDINE-1-YL)BENZYL)IMIDAZO[1,2-A]PYRIDINE-3-CARBOXAMIDE” (priority 2019, published 2023).
In brackets after ≈: the same amount, converted by molar mass.

Columns and labels:
[1] = pKa analysis (UV-metric titration); type: physicochemical; details: methanol-water co-solvent, aqueous values by Yasuda-Shedlovsky extrapolation, 25.0-25.1 °C, 0.15 M KCl
Method: The sample pKas were determined using the spectrometric (UV-metric) technique. The sample was titrated in a UV-metric triple titration from pH 2.0-12.0 at concentrations of 31 -23 µM, under methanol-water co-solvent conditions (the methanol mixing ratio varied from 63.9 to 46.7% w/w).
It should be noted that an additional potentiometric assay was carried out which confirmed the pKas and that there were no further pKas associated with the sample within the measurable pH range (2.0-12.0).

[2] = Approximate solubility of the free base by gravimetry method; type: physicochemical; details: organic solvent or mixture, thermodynamic from solid
Method: The objective of measuring solubility of free base was to identify potential solvents for salt formation process development. Approximate solubility of the free base was measured by gravimetry method. Excess solids were added to various solvents including some Class III solvents (ICH guideline) at RT and 50° C. Since the solubility in these solvents is generally low, it was decided to mix water with these solvents. The suspensions were slurried for one day; the clear liquors from the top portion of the suspension were used for solubility determination by gravimetry method.

[3] = Solubility estimation by aliquot addition and Clarity temperature cycling; details: for solubility: 20 °C, organic solvent or mixture, thermodynamic from solid
cytochrome bc1 = cytochrome bc1 (Mycobacterium tuberculosis, UniProt P9WP37); details: Pethe et al., Nature Medicine, 19, 1157-1160 (2013); inhibiting cytochrome bc1 activity; cited from earlier work
Chain of cytochrome bc1 (P9WP37 whole entry, looked up): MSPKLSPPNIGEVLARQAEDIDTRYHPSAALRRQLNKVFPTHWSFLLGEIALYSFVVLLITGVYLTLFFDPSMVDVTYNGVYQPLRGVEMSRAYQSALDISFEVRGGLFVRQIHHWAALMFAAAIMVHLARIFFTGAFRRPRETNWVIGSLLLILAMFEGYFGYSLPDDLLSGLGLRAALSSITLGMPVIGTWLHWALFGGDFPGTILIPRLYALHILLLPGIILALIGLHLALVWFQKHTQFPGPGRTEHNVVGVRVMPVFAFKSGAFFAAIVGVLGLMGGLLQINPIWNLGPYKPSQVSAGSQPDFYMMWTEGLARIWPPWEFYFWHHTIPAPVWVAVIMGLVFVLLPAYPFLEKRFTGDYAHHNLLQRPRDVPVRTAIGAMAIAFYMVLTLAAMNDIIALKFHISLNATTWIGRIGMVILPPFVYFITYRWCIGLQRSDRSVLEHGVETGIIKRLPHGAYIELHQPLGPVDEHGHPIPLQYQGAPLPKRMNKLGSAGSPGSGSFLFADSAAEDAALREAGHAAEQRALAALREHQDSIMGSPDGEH

CCc1nc2ccc(Cl)cn2c1C(=O)NCc1ccc(N2CCC(c3ccc(OC(F)(F)F)cc3)CC2)cc1 [Q203 free base, 6-chloro-2-ethyl-N-(4-(4-(4-(trifluoromethoxy)phenyl)piperidine-1-yl)benzyl)imidazo[1,2-a]pyridine-3-carboxamide]
pKa [1]: 3.7 ± 0.06
solubility at 1 day ([2]; Acetone+5%water, 50° C.): 74 mg/mL (≈ 133 mM)
solubility at 1 day ([2]; Acetone+5%water, RT): 22 mg/mL (≈ 39.5 mM)
solubility at 1 day ([2]; Acetone+10%water, 50° C.): 42 mg/mL (≈ 75.4 mM)
solubility at 1 day ([2]; Acetone, 50° C.): 48 mg/mL (≈ 86.2 mM)
solubility at 1 day ([2]; EA and its mixture with water, 50° C.): 55 to 98 mg/mL (≈ 98.7 to 176 mM)
solubility at 1 day ([2]; EA+4%water, 50° C.): 55 mg/mL (≈ 98.7 mM)
solubility at 1 day ([2]; EA+4%water, RT): 16 mg/mL (≈ 28.7 mM)
solubility at 1 day ([2]; Ethyl Acetate (EA), 50° C.): 99 mg/mL (≈ 178 mM)
solubility at 1 day ([2]; Ethyl Acetate (EA), RT): 13 mg/mL (≈ 23.3 mM)
solubility at 1 day ([2]; IPA or its mixture with water, 50° C.): 11 to 22 mg/mL (≈ 19.7 to 39.5 mM)
solubility at 1 day ([2]; IPA+5%water, 50° C.): 22 mg/mL (≈ 39.5 mM)
solubility at 1 day ([2]; IPA+15%water, 50° C.): 11 mg/mL (≈ 19.7 mM)
solubility at 1 day ([2]; IPAC+4%water, 50° C.): 35 mg/mL (≈ 62.8 mM)
solubility at 1 day ([2]; Isopropyl Acetate (IPAC), 50° C.): 51 mg/mL (≈ 91.6 mM)
solubility at 1 day ([2]; Isopropyl Acetate (IPAC), RT): 26 mg/mL (≈ 46.7 mM)
solubility at 1 day ([2]; Isopropyl Alcohol (IPA), 50° C.): 20 mg/mL (≈ 35.9 mM)
solubility at 1 day ([2]; MA+4%water, 50° C.): 105 mg/mL (≈ 189 mM)
solubility at 1 day ([2]; MA+4%water, RT): 18 mg/mL (≈ 32.3 mM)
solubility at 1 day ([2]; Methyl Amine (MA), 50° C.): 94 mg/mL (≈ 169 mM)
solubility at 1 day ([2]; Methyl Amine (MA), RT): 38 mg/mL (≈ 68.2 mM)
solubility at 1 day ([2]; Tetrahydrofuran (THF), 50° C.): 279 mg/mL (≈ 501 mM)
solubility at 1 day ([2]; Tetrahydrofuran (THF), RT): 133 mg/mL (≈ 239 mM)
solubility at 1 day ([2]; acetone and its mixture with water, 50° C.): 41 to 74 mg/mL (≈ 73.6 to 133 mM)
solubility at 1 day ([2]; methyl acetate, 50° C.): 94 to 105 mg/mL (≈ 169 to 189 mM)
Tcryst ([3]; IPA): 37.0-39.3 °C
Tdisso ([3]; IPA): 52.5-55.7 °C
solubility ([3]; IPA): < 25.3 mg/mL
Tcryst ([3]; MEK): not observed
Tdisso ([3]; MEK): ambient
solubility ([3]; MEK): 50 to 56 mg/mL (≈ 89.8 to 101 mM)
Tcryst ([3]; acetone): *not observed
solubility ([3]; acetone): < 25.4 mg/mL
Tdisso ([3]; acetone, partial solubility when heated, solid remained after two Clarity heat/cool cycles): *35 °C
Tcryst ([3]; acetonitrile): 47.4-47.9 °C
Tdisso ([3]; acetonitrile): 58.2-58.9 °C
solubility ([3]; acetonitrile): < 25 mg/mL
Tcryst ([3]; dichloromethane): not observed
Tdisso ([3]; dichloromethane): ambient
solubility ([3]; dichloromethane): 169 to 253 mg/mL (≈ 303 to 454 mM)
Tcryst ([3]; dimethyl sulfoxide): 32.8-39.3 °C
Tdisso ([3]; dimethyl sulfoxide): 53.6-54.7 °C
solubility ([3]; dimethyl sulfoxide): < 25.5 mg/mL
Tcryst ([3]; ethyl acetate): not observed
Tdisso ([3]; ethyl acetate): ambient
solubility ([3]; ethyl acetate): 34 to 36 mg/mL (≈ 61 to 64.6 mM)
Tcryst ([3]; methanol): 25.3-26.6 °C
Tdisso ([3]; methanol): 45.6-47.1 °C
solubility ([3]; methanol): < 25 mg/mL
Tcryst ([3]; methyl tert-butyl ether): not observed
Tdisso ([3]; methyl tert-butyl ether): not observed
solubility ([3]; methyl tert-butyl ether): < 25.6 mg/mL
Tcryst ([3]; tetrahydrofuran): not observed
Tdisso ([3]; tetrahydrofuran): ambient
solubility ([3]; tetrahydrofuran): 128 to 255 mg/mL (≈ 230 to 458 mM)
activity against tuberculosis (cytochrome bc1): active against tuberculosis
